{
  "source": "patent US9006228B2",
  "about": "(Merck Sharp & Dohme Corp., priority 2011, dated 2015)",
  "data": [
    {"target": "T1, human GPR119 (Homo sapiens, UniProt Q8TDV5)", "T1 sequence (Q8TDV5 1-308 limits assumed)": "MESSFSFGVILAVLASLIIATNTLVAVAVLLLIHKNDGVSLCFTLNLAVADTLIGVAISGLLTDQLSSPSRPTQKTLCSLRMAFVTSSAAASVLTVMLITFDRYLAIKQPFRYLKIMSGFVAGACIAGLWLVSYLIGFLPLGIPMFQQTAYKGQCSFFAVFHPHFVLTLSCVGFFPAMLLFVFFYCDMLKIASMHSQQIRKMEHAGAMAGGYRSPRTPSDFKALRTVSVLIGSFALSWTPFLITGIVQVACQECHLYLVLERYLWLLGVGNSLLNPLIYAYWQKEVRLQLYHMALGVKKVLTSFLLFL", "assay": "Measurement of GPR119 signaling (cAMP assay; LANCE kit or HTRF) in HEK293 cells stably transfected with human GPR119", "type": "cell-based", "settings": "agonist-stimulated cAMP in HEK293 cells expressing human GPR119", "in_short": "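LANCE method: cAMP detected with Eu-chelate/biotin-cAMP tracer, 3 h, read at 665 nm, converted via cAMP standards; basal from DMSO, maximum from internal agonist, 4-parameter fit.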", "units": {"EC50": "nM"}, "values": [
      {"smiles": "CCc1cnc(N2CCC([C@H]3C[C@H]3COCc3ccc(-c4cncnc4)cc3F)CC2)nc1", "note": "[Example 108, 5-{4-[({(1R,2R)-2-[1-(5-ethylpyrimidin-2-yl)piperidin-4-yl]cyclopropyl}methoxy)methyl]-3-fluorophenyl}pyrimidine]", "EC50": 1.1},
      {"smiles": "CCCOC(=O)N1CCC([C@H]2C[C@H]2COCc2ccc(S(C)(=O)=O)cc2)CC1", "note": "[Example 8, propyl 4-[(1R,2R)-2-({[4-(methylsulfonyl)benzyl]oxy}methyl)cyclopropyl]piperidine-1-carboxylate]", "EC50": 16},
      {"smiles": "CC(C)c1noc(N2CCC([C@H]3C[C@H]3COCc3ccc(S(C)(=O)=O)cc3F)CC2)n1", "note": "[Example 78, 4-[(1R,2R)-2-({[2-fluoro-4-(methylsulfonyl)benzyl]oxy}methyl)cyclopropyl 1]-1-(3-isopropyl-1,2,4-oxadiazol-5-yl)piperidine]", "EC50": 4.9},
      {"smiles": "COC(=O)c1cnc(N2CCC([C@H]3C[C@H]3COCc3ccc(S(C)(=O)=O)cc3)CC2)nc1", "note": "[Example 17, methyl 2-{4-[(1R,2R)-2-({[4-(methylsulfonyl)benzyl]oxy}methyl)cyclopropyl]piperidin-1-yl}pyrimidine-5-carboxylate]", "EC50": 20},
      {"smiles": "CC(O)CS(=O)(=O)c1ccc(COC[C@@H]2C[C@@H]2C2CCN(C(=O)OC(C)(C)C)CC2)cc1", "note": "(stereo partly drawn) [Example 94]", "EC50": 9.5},
      {"smiles": "CC(O)CS(=O)(=O)c1ccc(COC[C@@H]2C[C@@H]2C2CCN(c3ncc(Br)cn3)CC2)c(F)c1", "note": "(stereo partly drawn) [Example 97, 1-({4-[({(1R,2R)-2-[1-(5-bromopyrimidin-2-yl)piperidin-4-yl]cyclopropyl}methoxy)methyl]-3-fluorophenyl}sulfonyl)propan-2-ol]", "EC50": 1.6},
      {"smiles": "CC(C)(O)c1cnc(N2CCC([C@H]3C[C@H]3COCc3ccc(S(C)(=O)=O)cc3F)CC2)nc1", "note": "[Example 76]", "EC50": 15},
      {"smiles": "CCc1cnc(N2CCC([C@H]3C[C@H]3COCc3ccc(-c4ccnnc4)cc3F)CC2)nc1", "note": "[Example 102, 4-{4-[({(1R,2R)-2-[1-(5-ethylpyrimidin-2-yl)piperidin-4-yl]cyclopropyl}methoxy)methyl]-3-fluorophenyl}pyridazine]", "EC50": 0.6},
      {"smiles": "CCc1cnc(N2CCC([C@H]3C[C@H]3[C@@H](COC)OCc3ccc(S(=O)(=O)CC)cc3)CC2)nc1", "note": "[Example 67]", "EC50": 0.16},
      {"smiles": "CS(=O)(=O)c1ccc(COC[C@@H]2C[C@@H]2C2CCN(c3nc(C4CC4)no3)CC2)cc1", "note": "[Example 27, 1-(3-cyclopropyl-1,2,4-oxadiazol-5-yl)-4-[(1R,2R)-2-({[4-(methylsulfonyl)benzyl]oxy}methyl)cyclopropyl]piperidine]", "EC50": 3.2},
      {"smiles": "CCCc1cnc(N2CCC([C@H]3C[C@H]3COCc3ccc(S(=O)(=O)CCO)cn3)CC2)nc1", "note": "[Example 89, 2-({6-[({(1R,2R)-2-[1-(5-propylpyrimidin-2-yl)piperidin-4-yl]cyclopropyl}methoxy)methyl]pyridin-3-yl}sulfonyl)ethanol]", "EC50": 10},
      {"smiles": "O=S(=O)(c1ccc(COC[C@@H]2C[C@@H]2C2CCN(c3nc(C4CCC4)no3)CC2)cc1)C1CC1", "note": "[Example 31, 1-(3-cyclobutyl-1,2,4-oxadiazol-5-yl)-4-[(1R,2R)-2-({[4-(cyclopropylsulfonyl)benzyl]oxy}methyl)cyclopropyl]piperidine]", "EC50": 7},
      {"smiles": "CC(C)c1noc(N2CCC([C@H]3C[C@H]3COCc3ccc(CC(=O)N4CCOCC4)c(F)c3)CC2)n1", "note": "[Example 141, 2-(2-fluoro-4-((((1R,2R)-2-(1-(3-isopropyl-1,2,4-oxadiazol-5-yl)piperidin-4-yl)cyclopropyl)methoxy)methyl)phenyl)-1-morpholinoethanone]", "EC50": 1.2},
      {"smiles": "CCc1cnc(N2CCC([C@H]3C[C@H]3COCc3ccc(-c4ccc(OC)nn4)cc3F)CC2)nc1", "note": "[Example 101, 3-{4-[({(1R,2R)-2-[1-(5-ethylpyrimidin-2-yl)piperidin-4-yl]cyclopropyl}methoxy)methyl]-3-fluorophenyl}-6-methoxypyridazine]", "EC50": 0.8},
      {"smiles": "CC1(OC(=O)N2CCC([C@H]3C[C@H]3COCc3ccc(S(C)(=O)=O)cc3)CC2)CC1", "note": "[Example 11, 1-methylcyclopropyl 4-[(1R,2R)-2-({[4-(methylsulfonyl)benzyl]oxy}methyl)cyclopropyl]piperidine-1-carboxylate]", "EC50": 3.9},
      {"smiles": "COc1cnc(N2CCC([C@H]3C[C@H]3COCc3ccc(S(C)(=O)=O)cc3)CC2)nc1", "note": "[Example 15, 5-methoxy-2-{4-[(1R,2R)-2-({[4-(methylsulfonyl)benzyl]oxy}methyl)cyclopropyl]piperidin-1-yl}pyrimidine]", "EC50": 0.4},
      {"smiles": "CC(O)CS(=O)(=O)c1ccc(COC[C@@H]2C[C@@H]2C2CCN(c3cnc(Cl)cn3)CC2)c(F)c1", "note": "(stereo partly drawn) [Example 98, 1-({4-[({(1R,2R)-2-[1-(5-chloropyrazin-2-yl)piperidin-4-yl]cyclopropyl}methoxy)methyl]-3-fluorophenyl}sulfonyl)propan-2-ol]", "EC50": 7.3},
      {"smiles": "CS(=O)(=O)c1ccc(COC[C@@H]2C[C@@H]2C2CCN(c3ncc(Cl)cn3)CC2)cc1", "note": "[Example 14, 5-chloro-2-{4-[(1R,2R)-2-({[4-(methylsulfonyl)benzyl]oxy}methyl)cyclopropyl]piperidin-1-yl}pyrimidine]", "EC50": 0.7},
      {"smiles": "CCc1cnc(N2CCC([C@H]3C[C@H]3COCc3ccc(-c4ccncn4)c(F)c3)CC2)nc1", "note": "[Example 112, 4-{4-[({(1R,2R)-2-[1-(5-ethylpyrimidin-2-yl)piperidin-4-yl]cyclopropyl}methoxy)methyl]-2-fluorophenyl}pyrimidine]", "EC50": 3},
      {"smiles": "CCc1cnc(N2CCC([C@H]3C[C@H]3COCc3ccc(-c4cnc(N)nc4)c(F)c3)CC2)nc1", "note": "[Example 118, 5-{4-[({(1R,2R)-2-[1-(5-ethylpyrimidin-2-yl)piperidin-4-yl]cyclopropyl}methoxy)methyl]-2-fluorophenyl}pyrimidin-2-amine]", "EC50": 5.9},
      {"smiles": "COCc1cnc(N2CCC([C@H]3C[C@H]3COCc3ccc(CC(=O)N(C)C)cc3F)CC2)nc1", "note": "[Example 147, 2-(3-fluoro-4-((((1R,2R)-2-(1-(5-(methoxymethyl)pyrimidin-2-yl)piperidin-4-yl)cyclopropyl)methoxy)methyl)phenyl)-N,N-dimethylacetamide]", "EC50": 2.52},
      {"smiles": "CS(=O)(=O)c1ccc(COC[C@@H]2C[C@@H]2C2CCN(c3ncc(C#N)cn3)CC2)c(F)c1", "note": "[Example 72]", "EC50": 9.3},
      {"smiles": "CCc1cnc(N2CCC([C@H]3C[C@H]3COCc3ccc(-c4ccncn4)cc3F)CC2)nc1", "note": "[Example 110, 4-{4-[({(1R,2R)-2-[1-(5-ethylpyrimidin-2-yl)piperidin-4-yl]cyclopropyl}methoxy)methyl]-3-fluorophenyl}pyrimidine]", "EC50": 1.5},
      {"smiles": "CC(C)(C)OC(=O)N1CCC([C@H]2C[C@H]2COCc2cc(F)c(C(=O)C3CC3)c(F)c2)CC1", "note": "[Example 52, tert-butyl 4-[(1R,2R)-2-({[4-(cyclopropylcarbonyl)-3,5-difluorobenzyl]oxy}methyl)cyclopropyl]piperidine-1-carboxylate]", "EC50": 2.4},
      {"smiles": "CCS(=O)(=O)c1ccc(COC[C@@H]2C[C@@H]2C2CCN(C(=O)OC(C)(C)C)CC2)cc1F", "note": "[Example 34, tert-butyl 4-[(1R,2R)-2-({[4-(ethylsulfonyl)-3-fluorobenzyl]oxy}methyl)cyclopropyl]piperidine-1-carboxylate]", "EC50": 0.1},
      {"smiles": "CS(=O)(=O)c1ccc(COC[C@@H]2C[C@@H]2C2CCN(c3ncc(F)cn3)CC2)cc1", "note": "[Example 16, 5-fluoro-2-{4-[(1R,2R)-2-({[4-(methylsulfonyl)benzyl]oxy}methyl)cyclopropyl]piperidin-1-yl}pyrimidine]", "EC50": 5.8},
      {"smiles": "CCS(=O)(=O)c1ccc(COC[C@@H]2C[C@@H]2C2CCN(c3nc(C(C)C)no3)CC2)cc1", "note": "[Example 26, 4-[(1R,2R)-2-({[4-(ethylsulfonyl)benzyl]oxy}methyl)cyclopropyl]-1-(3-isopropyl-1,2,4-oxadiazol-5-yl)piperidine]", "EC50": 3.1},
      {"smiles": "CCc1cnc(N2CCC([C@H]3C[C@H]3COCc3ccc(-c4cccnn4)c(F)c3)CC2)nc1", "note": "[Example 114, 3-{4-[({(1R,2R)-2-[1-(5-ethylpyrimidin-2-yl)piperidin-4-yl]cyclopropyl}methoxy)methyl]-2-fluorophenyl}pyridazine]", "EC50": 3},
      {"smiles": "CCc1cnc(N2CCC([C@H]3C[C@H]3COCc3ccc(-c4cnc(N)nc4)cc3F)CC2)nc1", "note": "[Example 103, 5-{4-[({(1R,2R)-2-[1-(5-ethylpyrimidin-2-yl)piperidin-4-yl]cyclopropyl}methoxy)methyl]-3-fluorophenyl}pyrimidin-2-amine]", "EC50": 2.5},
      {"smiles": "O=S(=O)(CCO)c1ccc(COC[C@@H]2C[C@@H]2C2CCN(c3ncc(Br)cn3)CC2)c(F)c1", "note": "[Example 81]", "EC50": 1.7},
      {"smiles": "Cc1cnc(N2CCC([C@H]3C[C@H]3COCc3ccc(S(C)(=O)=O)cc3F)CC2)nc1", "note": "[Example 74]", "EC50": 4.3},
      {"smiles": "CC(O)CS(=O)(=O)c1ccc(COC[C@@H]2C[C@@H]2C2CCN(c3ncc(F)cn3)CC2)c(F)c1", "note": "(stereo partly drawn) [Example 96, 1-({4-[({(1R,2R)-2-[1-(5-fluoropyrimidin-2-yl)piperidin-4-yl]cyclopropyl}methoxy)methyl]-3-fluorophenyl}sulfonyl)propan-2-ol]", "EC50": 21.9},
      {"smiles": "CCCc1cnc(N2CCC([C@H]3C[C@H]3COCc3ccc(S(=O)(=O)CCO)cc3F)CC2)nc1", "note": "[Example 84]", "EC50": 1.3}
    ]}
  ]
}
